Consider 1 molecule from patent US6423518B1, “Design and production of mutant 2,5-diketo-D-gluconic acid reductase enzymes with altered cofactor dependency” (Rutgers, the State University, priority 2000, dated 2002).

Holding throughout (assay): Kinetic determination with purified enzyme, NADH cofactor, initial rates (microtiter plate)
Holding throughout (format): biochemical

For assay [1], the target named is T1, 2,5-diketo-D-gluconic acid reductase A, wild type, Corynebacterium sp. (ATCC Strain No. 31090; Genbank Accession No. 4699594; SEQ ID NO:1) (Corynebacterium sp., UniProt P06632).
T1 construct: GroES fragment (N); made in house; host or cells: E. coli JM109
T1 sequence (P06632 whole entry, the tested form may be a part): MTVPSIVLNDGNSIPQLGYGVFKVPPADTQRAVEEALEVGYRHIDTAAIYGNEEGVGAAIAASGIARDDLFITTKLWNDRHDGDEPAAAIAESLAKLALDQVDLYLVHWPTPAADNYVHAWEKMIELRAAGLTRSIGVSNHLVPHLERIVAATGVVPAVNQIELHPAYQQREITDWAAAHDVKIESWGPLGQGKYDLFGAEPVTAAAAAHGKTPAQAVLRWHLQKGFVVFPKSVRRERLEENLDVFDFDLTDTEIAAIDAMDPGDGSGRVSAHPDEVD
The procedure: (§1) The activities of the purified enzymes were assayed in 96-well microtiter plates on a plate reader.
(§2) Equation (1) is: [formula]
(§3) B=2,5-diketo-D-gluconic acid concentration;
(§4) Kb=Michaelis Constant for 2,5-diketo-D-gluconic acid;
(§5) Kia=Dissociation Constant for NADH;
(§6) Et=Total enzyme concentration.
(§7) However, the parameters could not be fit in this model with any accuracy, due to the large apparent value of KM for 2,5-diketo-D-gluconic acid, and the low concentration of 2,5-diketo-D-gluconic acid that was used. The 2,5-diketo-D-gluconic acid concentrations were not large enough to saturate the enzyme, so a further mathematical simplification was required. Preliminary fitting of the model indicated both kcat and Kb to be very large in comparison to Ka and Kia Therefore, the rate equation was simplified to the following equation (2): [formula]
(§8) This equation is only valid when B<<Kb.
(§9) This equation was then used to fit the kinetic data, with much better results.
(§10) Other comparisons can also be made between the different mutants using these parameters. […]
(§11) Cells containing plasmids for some of the mutant reductases were grown up on a 1 liter scale using a 10 ml inoculum from a saturated overnight culture. The cells were grown until absorbance of the culture at 600 nm was approximately 1.0. The cells were then induced by adding IPTG to a final concentration of 1 mM. The cells were harvested after growth at 37° C. for 4 hours. The cells were then pelleted by centrifugation and frozen for later use. At a later date, cells were thawed and lysed with the Bug Buster detergent (Novagen) containing Complete Protease Inhibitor Cocktail Tablets (Roche). The pH was lowered to 5.5 with 20 mM sodium acetate (NaOAc) and NaCl was added to a final concentration of 0.15 M. After 10 minutes with the detergent, the cell debris was removed by centrifugation, and the supernatant was loaded onto disposable chromatography columns containing a 10 ml bed volume of DEAE Cellulose (Sigma) for a batch weak ion exchange step. The resin was washed with 0.15 M NaCl, still in the presence of NaOAc, pH 5.5. The bound proteins were then eluted by two washes with 0.5 M NaCl. The eluted material was then diluted back to 0.15 M NaCl by the addition of more 20 mM NaOAc buffer. This was then loaded onto a 4.6 mmD/100mml PEEK column (PerSeptive Biosystems) containing 50 μm DEAE Ceramic HyperD F resin (BioSepra) using an FPLC system. The high performance resin was washed with 0.1 M NaCl and the bound proteins were eluted using a linear salt gradient up to 0.4 M NaCl. Active fractions were pooled and the pH was raised to 7.0 using 50 mM bis-Tris. The pooled fractions were then concentrated by ultrafiltration in a stirred cell unit using a polyethersulfone membrane with a 10,000 MW cut-off (Millipore). The concentrate was loaded onto a Superdex-75 gel filtration column (Pharmacia) using 50 mM bis-Tris pH 7.0 with an FPLC system. The active fractions were again pooled. A small sample from the pooled fractions was electrophoresed on a polyacrylamide gel in the presence of SDS in order to insure homogeneity of the final product.
(§12) NADPH and NADH were prepared fresh for each use in kinetic measurements. These reactions were performed in 96-well microtiter plates using a SpectraMax 190 plate reader (Molecular Devices). Varying amounts of cofactor and substrate were added to the wells and reaction was initiated by the addition of the mutant enzyme. The final volume of each reaction was 200 μl, the reactions were buffered with 50 mM bis-Tris pH 7.0, and the temperature was held at 25° C. […] Initial rate data was collected in each well, and a standard curve was generated each day in order to correlate the change in absorbance of the reaction to a change in concentration of cofactors. All measurements were performed in triplicate (at least) and the runs were averaged for use in kinetic modeling.

The target of assay [2] is T2, 2,5-diketo-D-gluconic acid reductase A (Corynebacterium sp., wild type SEQ ID NO:1) variant R235T (Corynebacterium sp., UniProt P06632, R235T).
T2 construct: GroES fragment (N); made in house; host or cells: E. coli JM109
T2 sequence (P06632 whole entry R235T, the tested form may be a part): as the sequence (P06632 whole entry, the tested form may be a part) above, with R235T counted along it
The procedure: as §1, §2, §3, §4, §5, §6, §7, §8, §9, §10, §11, §12

Assay [3] concerns the target T3, 2,5-diketo-D-gluconic acid reductase A (Corynebacterium sp., wild type SEQ ID NO:1) variant R238H (Corynebacterium sp., UniProt P06632, R238H).
T3 construct: GroES fragment (N); made in house; host or cells: E. coli JM109
The procedure:
as §1, §2, §3, §4, §5, §6, §7, §8, §9, §10, §11, §12

Assay [4] has as its target T4, 2,5-diketo-D-gluconic acid reductase A (Corynebacterium sp., wild type SEQ ID NO:1) variant R238E (Corynebacterium sp., UniProt P06632, R238E).
T4 construct: GroES fragment (N); made in house; host or cells: E. coli JM109
The procedure: as §1, §2, §3, §4, §5, §6, §7, §8, §9, §10, §11, §12

Where [5] appears, read: kcat/Ka apparent with NADH, relative to wild type.
The mark [6] stands for this setting: versus wild type, NADH as varied substrate.

T4 sequence (P06632 whole entry R238E, the tested form may be a part): as the sequence (P06632 whole entry, the tested form may be a part) above, with R238E counted along it
T3 sequence (P06632 whole entry R238H, the tested form may be a part): as the sequence (P06632 whole entry, the tested form may be a part) above, with R238H counted along it

Regarding `NC(=O)C1=CN([C@@H]2O[C@H](COP(=O)(O)OP(=O)(O)OC[C@H]3O[C@@H](n4cnc5c(N)ncnc54)[C@H](O)[C@@H]3O)[C@@H](O)[C@H]2O)C=CC1` [NADH], the “(kcat/KbKia)/(kcat/KbKia)wt” value in assay [1] (setting [5]) came out at 1.00; in assay [2] (setting [5]) it was 0.54; in assay [3] (setting [5]) it was 6.71; in assay [4] (setting [5]), 0.63. Besides, the Kd turned out to be 2.6 ± 0.16 mM in assay [1] (read-out: Kia), 8.84 ± 2.28 mM in assay [2], 2.07 ± 0.13 mM in assay [3] and 8.45 ± 1.74 mM in assay [4]. The “Kia/(Kia)wt” value in assay [1] (relative to wild type, NADH) was found to be 1.00; in assay [2] (relative to wild type, NADH), 3.40; in assay [3] (relative to wild type, NADH), 0.80; in assay [4] (relative to wild type, NADH) it was 3.25. Also, the “increase of apparent Ka” value in assay [2] (setting [6]) and in assay [4] (setting [6]) was “more than 3 fold” in each case. The “increase of apparent kcat” value in assay [2] (setting [6]) is recorded as 2 fold. In addition, the “improvement in apparent kcat” value in assay [3] (setting [6]) was “more than 5 fold”. Further, the “change of apparent kcat” value in assay [4] (setting [6]) is given as “doubled”.
